Common to all, as to assay type: in vivo, C57/BL6 mice
In assay [1] the test system is basophils in the peripheral blood. The assay is described as follows: number of basophils in peripheral blood, Siemens Advia 120 (Example 8). The conditions noted are these: 200 μl of 1% solution i.p., blood 16 hr later, vs saline. As to the method:
About 3-month-old C57/BL6 mice were intraperitoneally injected with 200 μl of saline (control) or 1% solution of respective compounds (dissolved in saline). Blood was collected 16 hr later, and the number of basophils in the peripheral blood was measured using Siemens Advia 120.

Assay [2] has as its system neutrophils in the whole blood cells. The assay is described as follows: ratio of neutrophils in whole blood cells, Siemens Advia 120 (Examples 12, 13). The conditions noted are these: 200 μl of 1% solution i.p., blood 16 hr later, vs saline. Here is the method:
About 3-month-old C57/BL6 mice were intraperitoneally injected with 200 μl of saline (control) or 1% solution of respective compounds (dissolved in saline). Blood was collected 16 hr later, and the ratio of neutrophils in the whole blood cells was measured using Siemens Advia 120.

The subject of assay [3] is basophils in the whole blood cells. The assay can be described thus: ratio of basophils in whole blood cells, Siemens Advia 120 (Example 14). The note with it: 200 μl of 1% solution i.p., blood 16 hr later, vs saline. Here is the method:
About 3-month-old C57/BL6 mice were intraperitoneally injected with 200 μl of saline (control) or 1% solution of respective compounds (dissolved in saline). Blood was collected 16 hr later, and the ratio of basophils in the whole blood cells was measured using Siemens Advia 120.

Assay [4] concerns neutrophils in the peripheral blood. The assay is described as follows: number of neutrophils in peripheral blood, Siemens Advia 120 (Examples 4, 5). The note with it: 200 μl of 1% solution i.p., blood 16 hr later, vs saline. As to the method: About 3-month-old C57/BL6 mice were intraperitoneally injected with 200 μl of saline (control) or 1% solution of respective compounds (dissolved in saline). Blood was collected 16 hr later, and the number of neutrophils in the peripheral blood was measured using Siemens Advia 120.

Assay [5] deals with monocytes in the whole blood cells. The assay can be described thus: ratio of monocytes in whole blood cells, Siemens Advia 120 (Examples 10, 11). The conditions noted are these: 200 μl of 1% solution i.p., blood 16 hr later, vs saline. As to the method:
About 3-month-old C57/BL6 mice were intraperitoneally injected with 200 μl of saline (control) or 1% solution of respective compounds (dissolved in saline). Blood was collected 16 hr later, and the ratio of monocytes in the whole blood cells was measured using Siemens Advia 120.
About 3-month-old C57/BL6 mice were intraperitoneally injected with 200 μl of saline (control) or 1% allyl isothiocyanate solution (dissolved in saline). Blood was collected 16 hr later, and the ratio of monocytes in the whole blood cells was measured using Siemens Advia 120.

Assay [6] has as its system lymphocytes in the whole blood cells. The assay is described as follows: ratio of lymphocytes in whole blood cells, Siemens Advia 120 (Example 15). The conditions noted are these: 1% solution i.p., blood 16 hr later, vs saline. Here is the method: About 3-month-old C57/BL6 mice were intraperitoneally injected with […] saline (control) or 1% solution of respective compounds (dissolved in saline). Blood was collected 16 hr later, and the ratio of lymphocytes in the whole blood cells was measured using Siemens Advia 120.

For assay [7], the system named is lymphocytes in the peripheral blood. The assay can be described thus: number of lymphocytes in peripheral blood, Siemens Advia 120 (Example 9). The note with it: 200 μl of 1% solution i.p., blood 16 hr later, vs saline. Here is the method: About 3-month-old C57/BL6 mice were intraperitoneally injected with 200 μl of saline (control) or 1% solution of respective compounds (dissolved in saline). Blood was collected 16 hr later, and the number of lymphocytes in the peripheral blood was measured using Siemens Advia 120.

For assay [8], the system named is monocytes in the peripheral blood. The assay can be described thus: number of monocytes in peripheral blood, Siemens Advia 120 (Examples 6, 7). The note with it: 200 μl of 1% solution i.p., blood 16 hr later, vs saline. As to the method: About 3-month-old C57/BL6 mice were intraperitoneally injected with 200 μl of saline (control) or 1% solution of respective compounds (dissolved in saline). Blood was collected 16 hr later, and the number of monocytes in the peripheral blood was measured using Siemens Advia 120.
About 3-month-old C57/BL6 mice were intraperitoneally injected with 200 μl of saline (control) or 1% allyl isothiocyanate solution (dissolved in saline). Blood was collected 16 hr later, and the number of monocytes in the peripheral blood was measured using Siemens Advia 120.

The test system of assay [9] is neutrophils in the peripheral blood. The assay can be described thus: flow cytometry of neutrophils in peripheral blood, 2MT i.p./odor, corticosterone (Example 3). The conditions noted are these: intraperitoneal injection vs saline i.p., blood 16 hr later. Here is the method: (§1) About 3-month-old C57/BL6 mice were intraperitoneally administered with 200 μl of saline (control) or 1% 2MT solution (dissolved in saline). Blood was collected 16 hr later, and the number of various leukocytes in the peripheral blood was measured by a flow cytometry method by peroxidase staining and a two-angle laser flow cytometry method. The ratios of neutrophils and monocytes in the peripheral blood under respective conditions that were clarified by the measurement are shown.
A general note: In flow cytometry, cells or beads pass a laser one at a time.

Assay [10] concerns monocytes in the peripheral blood. The assay can be described thus: flow cytometry of monocytes in peripheral blood, 2MT i.p./odor, corticosterone (Example 3). The conditions noted are these: intraperitoneal injection vs saline i.p., blood 16 hr later. Here is the method:
as §1

`CC(=O)c1ccc(C)o1` [2-Acetyl-5-methylfuran]: the “number of basophils in the peripheral blood” value (shortened to “number of basophils”) in assay [1] is recorded as “increases”. Besides, the “ratio of neutrophils in the whole blood cells” value (from here on “ratio of neutrophils”) in assay [2] is “increases”. Also, in assay [3], the “ratio of basophils in the whole blood cells” value (“ratio of basophils” for short) is reported as “increases”.

In the case of `Cc1cncs1` [5-Methylthiazole], in assay [4], the “neutrophils in the peripheral blood (number)” value (“neutrophils … (number)” for short) is given as “increase”. Besides, in [5], the “ratio of monocytes in the whole blood cells” value (“ratio of monocytes” below) is recorded as “increases”. Moreover, the “ratio of neutrophils” value in assay [2] is “increases”. In addition, the “ratio of lymphocytes in the whole blood cells” value (from here on “ratio of lymphocytes”) in assay [6] is recorded as “increases”.

Turning to `CC(=O)c1cccc(C)n1` [2-Acetyl-6-methylpyridine], the “number of lymphocytes in the peripheral blood” value (shortened to “number of lymphocytes”) in [7] was “increases”.

Take `Cc1nccnc1SCc1ccco1` [2-Furfurylthio-3-methylpyrazine]: the “neutrophils … (number)” value in [4] is “increase”. Moreover, the “number of monocytes in the peripheral blood” value in assay [8] is recorded as “increase”. Further, the “ratio of monocytes” value in assay [5] is on record as “increases”. Moreover, the “ratio of neutrophils” value in assay [2] is listed as “increases”.

With `CC1OCCC1S` (stereo not drawn) [2-Methyl-3-tetrahydrofuranthiol], the “number of monocytes in the peripheral blood” value in [8] was “increase”. Besides, in assay [1], the “number of basophils” value is “increases”. Moreover, the “ratio of monocytes” value in assay [5] was “increases”.

Regarding `Cc1ccc(C)s1` [2,5-Dimethylthiophene], the “neutrophils … (number)” value in assay [4] is “increase”. Moreover, the “number of basophils” value in assay [1] is listed as “increases”. Also, the “number of lymphocytes” value in assay [7] is listed as “increases”.

In the case of `Cc1ccc(C)o1` [2,5-Dimethylfuran], the “number of basophils” value in [1] is listed as “increases”.

Take `SC1=NCCS1` [2-Mercaptothiazoline]: the “neutrophils … (number)” value in assay [4] is given as “increase”. Further, the “number of monocytes in the peripheral blood” value in [8] is “increase”. Further, the “ratio of monocytes” value in assay [5] is listed as “increases”. In addition, in assay [2], the “ratio of neutrophils” value is reported as “increases”. The “ratio of basophils” value in assay [3] is given as “increases”.

As for `COc1ccc2ncccc2c1` [6-Methoxyquinoline], the “neutrophils … (number)” value in assay [4] is given as “increase”. The “number of monocytes in the peripheral blood” value in assay [8] is “increase”. The “number of basophils” value in assay [1] is listed as “increases”. For the same molecule, in assay [5], the “ratio of monocytes” value is “increases”. For the same molecule, the “ratio of neutrophils” value in assay [2] is recorded as “increases”. Further, the “ratio of basophils” value in [3] is on record as “increases”.

For (−)-Ambroxide, the “number of lymphocytes” value in [7] is “increases”.

As to `CC1CCC(C)O1` (stereo not drawn) [2,5-Dimethyltetrahydrofuran], the “number of basophils” value in assay [1] was “increases”. Besides, the “ratio of monocytes” value in [5] is on record as “increases”. Further, the “ratio of basophils” value in [3] is recorded as “increases”.

Regarding `CC(=O)c1ccncc1` [4-Acetylpyridine], the “neutrophils … (number)” value in assay [4] is reported as “increase”. The “number of monocytes in the peripheral blood” value in assay [8] is listed as “increase”. For the same molecule, the “ratio of monocytes” value in assay [5] is given as “increases”. Also, in assay [2], the “ratio of neutrophils” value was “increases”.

As for `O=S1(=O)CCN(c2ccccc2)CC1` [4-Phenyl-thiomorpholine-1,1-dioxide], the “number of monocytes in the peripheral blood” value in assay [8] was “increase”. Moreover, in assay [7], the “number of lymphocytes” value was “increases”.

With `CC(=O)c1ncc(C)nc1C` [2-Acetyl-3,5-dimethy pyrazine], the “number of monocytes in the peripheral blood” value in assay [8] is “increase”. The “number of basophils” value in [1] was “increases”.

Consider `Cc1cccc(C)n1` [2,6-Lutidine], for which, in assay [1], the “number of basophils” value was “increases”. Moreover, in assay [3], the “ratio of basophils” value is “increases”.

On to `Cc1cccnc1C` [2,3-dimethylpyridine], for which the “number of lymphocytes” value in [7] was “increases”.

Turning to `CCC1CSC(C)=N1` (stereo not drawn) [4-Ethyl-2-methyl-thiazoline], in [4], the “neutrophils … (number)” value was “increase”. In addition, the “ratio of monocytes” value in assay [5] is recorded as “increases”. In addition, in assay [2], the “ratio of neutrophils” value is recorded as “increases”. Also, the “ratio of lymphocytes” value in assay [6] is listed as “increases”.

With `Cc1oc2ccccc2c1C` [2,3-Dimethylbenzofuran], the “number of basophils” value in assay [1] was “increases”. In [2], the “ratio of neutrophils” value is on record as “increases”. In addition, the “ratio of basophils” value in [3] was “increases”.

On to `O=Cc1cncs1` [5-Formylthiazole], for which the “ratio of lymphocytes” value in assay [6] is “increases”.

For the molecule `C1COCCN1` [Morpholine], in assay [4], the “neutrophils … (number)” value is on record as “increase”. Moreover, in assay [8], the “number of monocytes in the peripheral blood” value is recorded as “increase”. In [7], the “number of lymphocytes” value is reported as “increases”.

As to `C[C@]12C[C@H](O)[C@H]3[C@@H](CCC4=CC(=O)CC[C@@]43C)[C@@H]1CC[C@@H]2C(=O)CO` [Corticosterone, reference compound], in [9], the number of neutrophils result is on record as “decreased”. The number of monocytes entry in assay [10] is given as “did not increase significantly”.

With `Cc1ccco1` [2-Methylfuran], the “number of basophils” value in [1] is “increases”. Also, in [3], the “ratio of basophils” value is reported as “increases”.

(Values after patent publication US20230149420A1, “ANTI-INFLAMMATORY IMMUNOENHANCER” (SCENT SCIENCE INTERNATIONAL INC., priority 2020, published 2023).)
